Results reported in EP0391411A2, “3'-Substituted methyl nucleosides as antiviral agents” (Bristol-Myers Squibb Company, priority 1989, dated 1990).

Columns and labels:
[1] = tested on: HIV (LAV strain); experiment: Anti-HIV/LAV activity in CEM-F cells, p-24 gag protein ELISA; assay type: cell-based; conditions: Human immunodeficiency virus 1, 192 h, eight days, p-24 gag protein in supernatant, read-out: HIV (ID50)
Experimental: The anti-HIV/LAV activity was measured in cultures of CEM-F cells. The CEM cells were infected with approximately 30 TCID₅₀ (50% tissue culture infectious dose) of HIV (LAV strain). The cells were then incubated for 45 minutes at 37°C. The test compounds, in culture medium, were added at various concentrations to the infected cells and then incubated for a further eight days. After eight days, the antiviral activity was evaluated in the culture media supernatant for p-24 gag protein by an enzyme capture assay (ELISA). The antiviral activity was expressed as the dose that inhibits 50% of the virus expression (ID₅₀ in µM) as detected by the assay described.

[2] = tested on: Murine leukemia virus (MuLV); experiment: UV-XC plaque assay against murine retroviruses; assay type: cell-based; conditions: SC1, SC-1 cells
Experimental: The compounds were evaluated for antiviral activity against Murine leukemia virus (MuLV) strains using the UV-XC plaque assay (Rowe, et al, "Virology", 42:1136, 1970).
The MuLV strains were grown in feral mouse cells (SC-1) and used for antiviral tests using the UV-XC plaque assay. Briefly, SC-1 cells are grown as monolayers in 4-well tissue culture plates and inoculated with approximately 50-100 plaque forming units of MuLV in 0.5 mL of 5% EMEM containing 20 ug/mL DEAE/Dextran. After 1 hour adsorption, the inoculum is removed and 5 mL of 5% EMEM containing three-fold dilutions of the appropriate drug are added. Five days later, the cultures are UV-irradiated with an ultraviolet lamp and rat XC sarcoma cells are added to the cultures. Three to four days after UV-irradiation, the cell cultures are stained with Giemsa stain and the plaques are enumerated. Antiviral activity is expressed in terms of the reduction in the mean number of UV-XC plaques counted in the drug treated, virus-infected cultures compared with mean number of plaques counted in untreated, virus-infected control cultures.

Cc1cn([C@H]2C[C@H](N=[N+]=[N-])[C@@H](CO)O2)c(=O)[nH]c1=O [AZT, 3′-Azido-3′-deoxythymidine, reference compound]
IC50 [1]: 1 µM
IC50 [2]: 0.0066 µM

Cc1cn([C@H]2C[C@H](CO)[C@@H](CO)O2)c(=O)[nH]c1=O [Example 4², 1-(2,3-Dideoxy-3-C-hydroxymethyl-β-D-erythro-pentofuranosyl)thymine]
IC50 [1]: > 10 µM
IC50 [2]: 17.7 µM

Cc1cn([C@@H]2C[C@H](CO)[C@@H](CO)O2)c(=O)[nH]c1=O [Example 4³, 1-(2,3-Dideoxy-3-C-hydroxymethyl-α-D-erythropentofuranosyl)thymine]
IC50 [2]: > 32 µM

Nc1ccn([C@@H]2O[C@H](CO)[C@@H](CO)[C@H]2O)c(=O)n1 [Example 8, 1-(3-Deoxy-3-C-hydroxymethyl-β-D-ribofuranosyl)cytosine]
IC50 [1]: 0.8 µM
IC50 [2]: > 100 µM

O=c1ccn([C@H]2C[C@H](CO)[C@@H](CO)O2)c(=O)[nH]1 [Example 12, 1-(2,3-Dideoxy-3-C-hydroxymethyl-β-D-erythro-pentofuranosyl)uracil]
IC50 [1]: > 10 µM
IC50 [2]: 83 µM

Nc1ccn([C@H]2C[C@H](CO)[C@@H](CO)O2)c(=O)n1 [Example 16², 1-(2,3-Dideoxy-3-C-hydroxymethyl-β-D-erythro-pentofuranosyl)cytosine]
IC50 [1]: > 0.1 µM
IC50 [2]: 0.06 µM

Nc1ccn([C@@H]2C[C@H](CO)[C@@H](CO)O2)c(=O)n1 [Example 16³, 1-(2,3-Dideoxy-3-C-hydroxymethyl-α-D-erythro-pentofuranosyl)cytosine]
IC50 [1]: 4.7 µM

Nc1ncnc2c1ncn2[C@H]1C[C@H](CO)[C@@H](CO)O1 [Example 25, 9-[2,3-Dideoxy-3-C-hydroxymethyl-β-D-erythro-pentofuranosyl]adenine]
IC50 [1]: > 10 µM

O=c1[nH]cnc2c1ncn2[C@H]1C[C@H](CO)[C@@H](CO)O1 [Example 26, 9-(2,3-Dideoxy-3-C-hydroxymethyl-β-D-erythro-pentofuranosyl)hypoxanthine]
IC50 [1]: > 10 µM
IC50 [2]: 5 µM
